From US4818749A, “Carboxyalkyl dipeptides and medical use thereof in treating hypertension and congestive heart failure” (Schering Corporation, priority 1981, dated 1989)

target: T1, angiotensin converting enzyme (ACE) (Rattus norvegicus, UniProt P47820); experiment: ACE inhibition in anesthetized rats: inhibition of angiotensin I pressor response after iv test drug; type: in vivo, Sprague-Dawley rats; settings: anesthetized Sprague-Dawley rats; drug iv; angiotensin I challenge 5 min after dosing; blood pressure response as percent of control; linear regression
T1 construct: Drugs were injected intravenously; from tissue; host or cells: whole living animal (anesthetized Sprague-Dawley rat); no enzyme isolated
T1 sequence (P47820 36-1313): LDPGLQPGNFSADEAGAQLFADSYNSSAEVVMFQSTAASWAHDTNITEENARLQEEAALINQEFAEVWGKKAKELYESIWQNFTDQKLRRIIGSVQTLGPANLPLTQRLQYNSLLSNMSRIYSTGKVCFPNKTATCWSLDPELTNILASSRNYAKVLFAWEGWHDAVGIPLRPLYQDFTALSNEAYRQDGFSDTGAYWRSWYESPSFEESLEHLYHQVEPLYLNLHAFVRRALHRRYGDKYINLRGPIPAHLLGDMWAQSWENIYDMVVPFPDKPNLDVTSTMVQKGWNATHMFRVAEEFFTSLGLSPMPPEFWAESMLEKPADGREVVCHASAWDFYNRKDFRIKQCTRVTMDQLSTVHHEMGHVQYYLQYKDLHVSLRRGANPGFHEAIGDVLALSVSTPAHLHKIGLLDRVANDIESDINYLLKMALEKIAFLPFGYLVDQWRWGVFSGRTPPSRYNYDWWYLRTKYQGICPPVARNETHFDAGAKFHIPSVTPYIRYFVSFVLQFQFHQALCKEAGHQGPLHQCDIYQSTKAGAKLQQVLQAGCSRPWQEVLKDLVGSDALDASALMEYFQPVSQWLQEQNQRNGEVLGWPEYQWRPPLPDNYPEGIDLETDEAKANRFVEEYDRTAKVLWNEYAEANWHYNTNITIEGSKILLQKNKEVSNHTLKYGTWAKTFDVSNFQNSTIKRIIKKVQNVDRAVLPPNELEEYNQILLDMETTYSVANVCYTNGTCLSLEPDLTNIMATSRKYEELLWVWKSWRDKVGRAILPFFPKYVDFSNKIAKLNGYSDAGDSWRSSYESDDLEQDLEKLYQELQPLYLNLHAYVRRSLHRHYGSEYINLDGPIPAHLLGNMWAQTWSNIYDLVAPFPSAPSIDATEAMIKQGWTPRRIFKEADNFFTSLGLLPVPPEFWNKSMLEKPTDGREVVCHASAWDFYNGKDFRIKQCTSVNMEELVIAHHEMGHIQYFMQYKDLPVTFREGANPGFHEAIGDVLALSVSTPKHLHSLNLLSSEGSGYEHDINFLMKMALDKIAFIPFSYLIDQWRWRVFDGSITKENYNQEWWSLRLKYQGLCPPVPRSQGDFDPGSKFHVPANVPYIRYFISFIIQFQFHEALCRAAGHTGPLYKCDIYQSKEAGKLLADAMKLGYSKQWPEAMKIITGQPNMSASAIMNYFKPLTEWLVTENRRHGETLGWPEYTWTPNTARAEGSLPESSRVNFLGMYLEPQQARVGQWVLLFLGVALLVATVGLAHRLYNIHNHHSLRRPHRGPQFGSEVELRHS

Compound	ID50
CCOC(=O)[C@H](CSCc1ccc2ccccc2c1)N[C@H](C)C(=O)N1C2CCCCC2C[C@H]1C(=O)O.Cl (relative stereo) [Compound 7, 1-[N-[1(R)-Ethoxycarbonyl-2-(2-naphthylmethylthio)ethyl]-(R)alanyl]-cis,syn-perhydroindole-2(S)-carboxylic acid hydrochloride]	> 1,000 μg/kg
CCOC(=O)[C@H](COCc1ccccc1)NC(C)C(=O)N1CCC[C@H]1C(=O)O.Cl (stereo partly drawn) [Compound 2, N-(1(S)-Ethoxycarbonyl-2-benzyloxyethyl)-(R,S)-alanyl-(S)-proline hydrochloride]	130 µg/kg
CCOC(=O)[C@H](CSCc1ccccc1)N[C@@H](C)C(=O)N1[C@H](C(=O)O)C[C@@H]2CCCC[C@@H]21 (relative stereo) [Compound 4, 1-[N-[1(R)-EthoxYcarbonyl-2-(benzylthio)ethyl]-(S)-alanyl]-cis,syn-perhydroindole-2(S)-carboxylic acid]	29 µg/kg
CCOC(=O)[C@H](CSCCc1ccccc1)N[C@@H](C)C(=O)N1C2CCCCC2C[C@H]1C(=O)O.Cl (relative stereo) [Compound 8, 1-[N-[1(R)-Ethoxycarbonyl-2-(phenylethylthio)ethyl]-(S)alanyl]-cis,syn-perhydroindole-2(S)-carboxylic acid hydrochloride]	32 µg/kg
CCOC(=O)[C@H](CSCc1ccccc1)NC(C)C(=O)N1C2CCCCC2C[C@H]1C(=O)O.Cl (relative stereo) [Compound 3, 1-[N-[1(R)-Ethoxycarbonyl-2-(benzylthio)ethyl]-(R,S)-alanyl]-cis,syn-perhydroindole-2(S)-carboxylic acid, hydrochloride]	30 µg/kg
Br.CCOC(=O)[C@H](CSCc1ccccc1)N[C@H](C)C(=O)N1[C@H](C(=O)O)C[C@@H]2CCCC[C@@H]21 (relative stereo) [Compound 5, 1-[N-[1(R)-Ethoxycarbonyl-2-(benzylthio)ethyl]-(R)-alanyl]-cis,syn-perhydroindole-2(S)-carboxylic acid, hydrobromide]	350 µg/kg
C[C@H](N[C@@H](CCc1ccccc1)C(=O)O)C(=O)N1CCC[C@H]1C(=O)O [enalapril diacid, reference compound]	15 ± 3 µg/kg
CCOC(=O)[C@H](CSCc1ccccc1)NC(C)C(=O)N1CCC[C@H]1C(=O)O.Cl (stereo partly drawn) [Compound 1, N-(1(R)-Ethoxycarbonyl-2-benzylthioethyl)-(R,S)-alanyl-(S)-proline hydrochloride]	66 µg/kg
CCOC(=O)[C@H](CSCCc1ccccc1)N[C@H](C)C(=O)N1[C@H](C(=O)O)C[C@@H]2CCCC[C@@H]21.Cl (relative stereo) [Compound 9, 1-[N-[1(R)-Ethoxycarbonyl-2-(phenylethylthio)ethyl]-(R)alanyl]-cis,syn-perhydroindole-2(S)-carboxylic acid hydrochloride]	> 1,000 μg/kg
CCOC(=O)[C@H](CSCc1ccc(C)cc1)NC(C)C(=O)N1C2CCCCC2C[C@H]1C(=O)O (relative stereo) [4-methylbenzyl-thiomethyl, 1-[N-[1(R)-Ethoxycarbonyl-2-(4-methylbenzylthio)ethyl]-(R,S)-alanyl]-cis,syn-perhydroindole-2(S)-carboxylic acid]	88 µg/kg
C[C@H](N[C@@H](CCc1ccc(C(=O)O)cc1)C(=O)O)C(=O)N1C2CCCCC2C[C@H]1C(=O)O (relative stereo) [Compound 10, 1-[N-[1(S)-Carboxy-3-(4-carboxyphenyl)propyl]-(S)-alanyl]-cis,syn-perhydroindole-2(S)-carboxylic acid]	11 µg/kg
CCOC(=O)[C@H](CSCc1ccc2ccccc2c1)N[C@@H](C)C(=O)N1[C@H](C(=O)O)C[C@@H]2CCCC[C@@H]21.Cl (relative stereo) [Compound 6, 1-[N-[1(R)-Ethoxycarbonyl-2-(2-naphthylmethylthio)ethyl]-(S)-alanyl]-cis,syn-perhydroindole-2(S)-carboxylic acid hydrochloride]	> 100 µg/kg

same assay, conditions: rat, iv, 5 min, read-out: ID50

Compound	ED50
CCOC(=O)[C@H](CCc1ccccc1)N[C@@H](C)C(=O)N1CCC[C@H]1C(=O)O [enalapril, reference compound]	0.057 ± 0.007 mg/kg
